tested on: VCaP cells; test: Cytotoxicity assessment (Cell-titer-glo cell viability), VCaP; conditions: read-out: VCaP (CC50); VCaP cells, 6 days of treatment, Cell-titer-glo, vs DMSO

Compound | CC50
CC1(C)C(NC(=O)c2ccc(N3CC4CN(C(=O)COc5ccc6nnn(C7CCC(=O)NC7=O)c(=O)c6c5)CC4C3)cc2)C(C)(C)C1Oc1ccc(C#N)c(Cl)c1 (stereo not drawn) [Example 135, N-((1r,3r)-3-(3-chloro-4-cyanophenoxy)-2,2,4,4-tetramethylcyclobutyl)-4-(5-(2-((3-(2,6-dioxopiperidin-3-yl)-4-oxo-3,4-dihydrobenzo[d][1,2,3]triazin-6-yl)oxy)acetyl)hexahydropyrrolo[3,4-c]pyrrol-2(1H)-yl)benzamide] | ~10 nM
CC1(C)C(NC(=O)c2ccc(N3CC4CN(C(=O)CNc5ccc6nnn(C7CCC(=O)NC7=O)c(=O)c6c5)CC4C3)cc2)C(C)(C)C1Oc1ccc(C#N)c(Cl)c1 (stereo not drawn) [Example 136, N-((1r,3r)-3-(3-chloro-4-cyanophenoxy)-2,2,4,4-tetramethylcyclobutyl)-4-(5-((3-(2,6-dioxopiperidin-3-yl)-4-oxo-3,4-dihydrobenzo[d][1,2,3]triazin-6-yl)glycyl)hexahydropyrrolo[3,4-c]pyrrol-2(1H)-yl)benzamide] | 67.7 nM
CC1(C)C(NC(=O)c2ccc(N3CC4CN(CC5CCN(C(=O)COc6ccc7nnn(C8CCC(=O)NC8=O)c(=O)c7c6)CC5)CC4C3)cc2)C(C)(C)C1Oc1ccc(C#N)c(Cl)c1 (stereo not drawn) [Example 137, N-((1r,3r)-3-(3-chloro-4-cyanophenoxy)-2,2,4,4-tetramethylcyclobutyl)-4-(5-((1-(2-((3-(2,6-dioxopiperidin-3-yl)-4-oxo-3,4-dihydrobenzo[d][1,2,3]triazin-6-yl)oxy)acetyl)piperidin-4-yl)methyl)hexahydropyrrolo[3,4-c]pyrrol-2(1H)-yl)benzamide] | 94 nM
CC1(C)C(NC(=O)c2ccc(N3CC4CN(CC5CCN(C(=O)CNc6ccc7nnn(C8CCC(=O)NC8=O)c(=O)c7c6)CC5)CC4C3)cc2)C(C)(C)C1Oc1ccc(C#N)c(Cl)c1 (stereo not drawn) [Example 138, N-((1r,3r)-3-(3-chloro-4-cyanophenoxy)-2,2,4,4-tetramethylcyclobutyl)-4-(5-((1-((3-(2,6-dioxopiperidin-3-yl)-4-oxo-3,4-dihydrobenzo[d][1,2,3]triazin-6-yl)glycyl)piperidin-4-yl)methyl)hexahydropyrrolo[3,4-c]pyrrol-2(1H)-yl)benzamide] | 63.7 nM
CC1(C)C(NC(=O)c2ccc(N3CC4CN(CC5CCN(C(=O)C6CCN(c7ccc8nnn(C9CCC(=O)NC9=O)c(=O)c8c7)CC6)CC5)CC4C3)cc2)C(C)(C)C1Oc1ccc(C#N)c(Cl)c1 (stereo not drawn) [Example 139, N-((1r,3r)-3-(3-chloro-4-cyanophenoxy)-2,2,4,4-tetramethylcyclobutyl)-4-(5-((1-(1-(3-(2,6-dioxopiperidin-3-yl)-4-oxo-3,4-dihydrobenzo[d][1,2,3]triazin-6-yl)piperidine-4-carbonyl)piperidin-4-yl)methyl)hexahydropyrrolo[3,4-c]pyrrol-2(1H)-yl)benzamide] | 69.5 nM
CC1(C)[C@H](NC(=O)c2ccc(N3CC4CN(CC5CCN(C(=O)C6CN(c7ccc8nnn(C9CCC(=O)NC9=O)c(=O)c8c7)C6)CC5)CC4C3)cc2)C(C)(C)[C@H]1Oc1ccc(C#N)c(Cl)c1 (stereo partly drawn) [Example 140, N-((1r,3r)-3-(3-chloro-4-cyanophenoxy)-2,2,4,4-tetramethylcyclobutyl)-4-(5-((1-(1-(3-(2,6-dioxopiperidin-3-yl)-4-oxo-3,4-dihydrobenzo[d][1,2,3]triazin-6-yl)azetidine-3-carbonyl)piperidin-4-yl)methyl)hexahydropyrrolo[3,4-c]pyrrol-2(1H)-yl)benzamide] | 30 nM
CC1(C)C(NC(=O)c2ccc(C#CC3CCN(C(=O)C4CCN(c5ccc6nnn(C7CCC(=O)NC7=O)c(=O)c6c5)CC4)CC3)cc2)C(C)(C)C1Oc1ccc(C#N)c(Cl)c1 (stereo not drawn) [Example 141, N-((1r,3r)-3-(3-chloro-4-cyanophenoxy)-2,2,4,4-tetramethylcyclobutyl)-4-((1-(1-(3-(2,6-dioxopiperidin-3-yl)-4-oxo-3,4-dihydrobenzo[d][1,2,3]triazin-6-yl)piperidine-4-carbonyl)piperidin-4-yl)ethynyl)benzamide] | 11.5 nM
CC1(C)C(NC(=O)c2ccc(C#CC3CCN(c4ccc5nnn(C6CCC(=O)NC6=O)c(=O)c5c4)CC3)cc2)C(C)(C)C1Oc1ccc(C#N)c(Cl)c1 (stereo not drawn) [Example 142, N-((1r,3r)-3-(3-chloro-4-cyanophenoxy)-2,2,4,4-tetramethylcyclobutyl)-4-((1-(3-(2,6-dioxopiperidin-3-yl)-4-oxo-3,4-dihydrobenzo[d][1,2,3]triazin-6-yl)piperidin-4-yl)ethynyl)benzamide] | 7.1 nM
CC1(C)[C@H](NC(=O)c2cnc(N3CCN(CC4CCN(C(=O)C5CCN(c6ccc7nnn(C8CCC(=O)NC8=O)c(=O)c7c6)CC5)CC4)CC3)nc2)C(C)(C)[C@H]1Oc1ccc(C#N)c(Cl)c1 (stereo partly drawn) [Example 145, N-((1r,3r)-3-(3-chloro-4-cyanophenoxy)-2,2,4,4-tetramethylcyclobutyl)-2-(4-((1-(1-(3-(2,6-dioxopiperidin-3-yl)-4-oxo-3,4-dihydrobenzo[d][1,2,3]triazin-6-yl)piperidine-4-carbonyl)piperidin-4-yl)methyl)piperazin-1-yl)pyrimidine-5-carboxamide] | ~10 nM
CC1(C)C(NC(=O)c2cnc(N3CCN(CC4CCN(C(=O)C5CN(c6ccc7nnn(C8CCC(=O)NC8=O)c(=O)c7c6)C5)CC4)CC3)nc2)C(C)(C)C1Oc1ccc(C#N)c(Cl)c1 (stereo not drawn) [Example 146, N-((1r,3r)-3-(3-chloro-4-cyanophenoxy)-2,2,4,4-tetramethylcyclobutyl)-2-(4-((1-(1-(3-(2,6-dioxopiperidin-3-yl)-4-oxo-3,4-dihydrobenzo[d][1,2,3]triazin-6-yl)azetidine-3-carbonyl)piperidin-4-yl)methyl)piperazin-1-yl)pyrimidine-5-carboxamide] | ~10 nM
CC1(C)C(NC(=O)c2cnc(N3CCN(CC4CCN(C(=O)CNc5ccc6nnn(C7CCC(=O)NC7=O)c(=O)c6c5)CC4)CC3)nc2)C(C)(C)C1Oc1ccc(C#N)c(Cl)c1 (stereo not drawn) [Example 147, N-((1r,3r)-3-(3-chloro-4-cyanophenoxy)-2,2,4,4-tetramethylcyclobutyl)-2-(4-((1-((3-(2,6-dioxopiperidin-3-yl)-4-oxo-3,4-dihydrobenzo[d][1,2,3]triazin-6-yl)glycyl)piperidin-4-yl)methyl)piperazin-1-yl)pyrimidine-5-carboxamide] | ~10 nM
CC1(C)C(NC(=O)c2cnc(N3CCN(CC4CCN(C(=O)COc5ccc6nnn(C7CCC(=O)NC7=O)c(=O)c6c5)CC4)CC3)nc2)C(C)(C)C1Oc1ccc(C#N)c(Cl)c1 (stereo not drawn) [Example 148, N-((1r,3r)-3-(3-chloro-4-cyanophenoxy)-2,2,4,4-tetramethylcyclobutyl)-2-(4-((1-(2-((3-(2,6-dioxopiperidin-3-yl)-4-oxo-3,4-dihydrobenzo[d][1,2,3]triazin-6-yl)oxy)acetyl)piperidin-4-yl)methyl)piperazin-1-yl)pyrimidine-5-carboxamide] | ~10 nM
CC1(C)[C@H](NC(=O)c2ccc(-n3cc(CNc4ccc5nnn(C6CCC(=O)NC6=O)c(=O)c5c4)nn3)cc2)C(C)(C)[C@H]1Oc1ccc(C#N)c(Cl)c1 (stereo partly drawn) [Example 149, N-((1r,3r)-3-(3-chloro-4-cyanophenoxy)-2,2,4,4-tetramethylcyclobutyl)-4-(4-(((3-(2,6-dioxopiperidin-3-yl)-4-oxo-3,4-dihydrobenzo[d][1,2,3]triazin-6-yl)amino)methyl)-1H-1,2,3-triazol-1-yl)benzamide] | > 10000 nM
CC1(C)C(NC(=O)c2ccc(-n3cc(CNC(=O)C4CCN(c5ccc6nnn(C7CCC(=O)NC7=O)c(=O)c6c5)CC4)nn3)cc2)C(C)(C)C1Oc1ccc(C#N)c(Cl)c1 (stereo not drawn) [Example 150, N-((1-(4-(((1r,3r)-3-(3-chloro-4-cyanophenoxy)-2,2,4,4-tetramethylcyclobutyl)carbamoyl)phenyl)-1H-1,2,3-triazol-4-yl)methyl)-1-(3-(2,6-dioxopiperidin-3-yl)-4-oxo-3,4-dihydrobenzo[d][1,2,3]triazin-6-yl)piperidine-4-carboxamide] | 24.4 nM
CC1(C)C(NC(=O)c2ccc(-n3cc(CNC(=O)C4CN(c5ccc6nnn(C7CCC(=O)NC7=O)c(=O)c6c5)C4)nn3)cc2)C(C)(C)C1Oc1ccc(C#N)c(Cl)c1 (stereo not drawn) [Example 151, N-((1-(4-(((1r,3r)-3-(3-chloro-4-cyanophenoxy)-2,2,4,4-tetramethylcyclobutyl)carbamoyl)phenyl)-1H-1,2,3-triazol-4-yl)methyl)-1-(3-(2,6-dioxopiperidin-3-yl)-4-oxo-3,4-dihydrobenzo[d][1,2,3]triazin-6-yl)azetidine-3-carboxamide] | 25.6 nM
CC1(C)C(NC(=O)c2ccc(-n3cc(CNC(=O)CNc4ccc5nnn(C6CCC(=O)NC6=O)c(=O)c5c4)nn3)cc2)C(C)(C)C1Oc1ccc(C#N)c(Cl)c1 (stereo not drawn) [Example 152, N-((1r,3r)-3-(3-chloro-4-cyanophenoxy)-2,2,4,4-tetramethylcyclobutyl)-4-(4-((2-((3-(2,6-dioxopiperidin-3-yl)-4-oxo-3,4-dihydrobenzo[d][1,2,3]triazin-6-yl)amino)acetamido)methyl)-1H-1,2,3-triazol-1-yl)benzamide] | 233 nM
CC1(C)C(NC(=O)c2ccc(-n3cc(CCNc4ccc5nnn(C6CCC(=O)NC6=O)c(=O)c5c4)nn3)cc2)C(C)(C)C1Oc1ccc(C#N)c(Cl)c1 (stereo not drawn) [Example 153, N-((1r,3r)-3-(3-chloro-4-cyanophenoxy)-2,2,4,4-tetramethylcyclobutyl)-4-(4-(2-((3-(2,6-dioxopiperidin-3-yl)-4-oxo-3,4-dihydrobenzo[d][1,2,3]triazin-6-yl)amino)ethyl)-1H-1,2,3-triazol-1-yl)benzamide] | 45.4 nM
CC1(C)C(NC(=O)c2ccc(-n3cc(CCNC(=O)C4CCN(c5ccc6nnn(C7CCC(=O)NC7=O)c(=O)c6c5)CC4)nn3)cc2)C(C)(C)C1Oc1ccc(C#N)c(Cl)c1 (stereo not drawn) [Example 154, N-(2-(1-(4-(((1r,3r)-3-(3-chloro-4-cyanophenoxy)-2,2,4,4-tetramethylcyclobutyl)carbamoyl)phenyl)-1H-1,2,3-triazol-4-yl)ethyl)-1-(3-(2,6-dioxopiperidin-3-yl)-4-oxo-3,4-dihydrobenzo[d][1,2,3]triazin-6-yl)piperidine-4-carboxamide] | 41.6 nM
